Assay results published in patent publication US5393923A, “3,5-di-t-butyl-4-hydroxyphenylmethylhydroxylamines and their derivatives, pharmaceutical compositions, and methods of use therefor” (Warner-Lambert Company, priority 1993, dated 1995).
Where a name gives a salt, the structure may show the parent alone.

What was measured:
5-lipoxygenase = molecular target: T1, 5-lipoxygenase (Rattus norvegicus, UniProt P12527); test: ARBL whole cell 5-lipoxygenase assay (LTB4 formation, RBL-1 cells); format: cell-based; conditions: 50% inhibition of LTB4 formation
T1 construct: host or cells: RBL-1
T1 sequence (P12527 1-673): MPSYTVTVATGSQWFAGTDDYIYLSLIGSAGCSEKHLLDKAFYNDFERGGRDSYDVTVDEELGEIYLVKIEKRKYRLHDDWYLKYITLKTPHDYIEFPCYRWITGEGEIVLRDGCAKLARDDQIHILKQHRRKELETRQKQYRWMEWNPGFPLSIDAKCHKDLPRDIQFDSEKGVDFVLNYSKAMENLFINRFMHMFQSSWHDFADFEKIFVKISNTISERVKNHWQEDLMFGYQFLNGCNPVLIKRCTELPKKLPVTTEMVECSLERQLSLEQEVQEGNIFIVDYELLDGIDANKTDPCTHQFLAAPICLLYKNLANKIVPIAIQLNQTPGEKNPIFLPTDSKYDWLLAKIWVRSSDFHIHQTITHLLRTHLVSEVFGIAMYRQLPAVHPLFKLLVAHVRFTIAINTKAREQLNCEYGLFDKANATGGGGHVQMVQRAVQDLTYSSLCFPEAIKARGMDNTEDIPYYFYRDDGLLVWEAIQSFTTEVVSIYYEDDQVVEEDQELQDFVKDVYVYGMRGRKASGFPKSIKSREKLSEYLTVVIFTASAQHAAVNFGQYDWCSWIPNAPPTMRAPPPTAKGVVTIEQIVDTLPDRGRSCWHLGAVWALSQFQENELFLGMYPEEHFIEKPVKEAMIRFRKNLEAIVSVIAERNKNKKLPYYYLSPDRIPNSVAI
Procedure: (§1) ARBL/ARBC WHOLE CELL 5-LIPOXYGENASE AND CYCLOOXYGENASE ASSAYS The rat basophilic leukemia cell line (RBL-1) was obtained from the American Type Culture Collection (Rockville, Md.). Radioimmunoassay (RIA) kits of LTB4 and PGF2α were obtained from Amersham (Arlington Heights, Ill.) and Seragen (Boston, Mass.), respectively. RBL-1 cells are grown in suspension culture in Eagle's minimum essential medium supplemented with 12% fetal bovine serum at 37° C. in an incubator supplied with air-5% carbon dioxide. Cells are harvested by centrifugation. They are washed with cold phosphate-buffered saline, pH 7.4 (PBS; NaCl, 7.1 g; Na2 HPO4, 1.15 g; KH2 PO4, 0.2 g; and KCl, 0.2 g/L). Cells are finally suspended in PBS containing 1.0 mM calcium at a density of 2×10^6 cells/mL. Cells are incubated […] test agent (in DMSO) (1% DMSO is without effect on arachidonic acid metabolism) for 10 minutes at room temperature. Calcium ionophore A23187 (5 μM) is added and cells are incubated for 7 minutes at 37° C. The reaction is stopped by chilling the tubes on ice for 10 minutes. Cells are separated by centrifugation and the supernatant is stored at -20° C. Aliquots (100 μL) are analyzed for LTB4 and PGF2α using radioimmunoassay kits as provided by the supplier. Table 1 contains biochemical data for compounds of Formula I obtained from this whole cell assay as amount of inhibition at given μM or IC50 s which are calculated as the concentration of a test compound in micromoles (μM) causing 50% inhibition of LTB4 or PGF2αformation.

cyclooxygenase = molecular target: T2, cyclooxygenase (Rattus norvegicus, UniProt Q63921); test: ARBC whole cell cyclooxygenase assay (PGF2α formation, RBL-1 cells); format: cell-based; conditions: 50% inhibition of PGF2α formation
T2 construct: host or cells: RBL-1
T2 sequence (Q63921 27-602): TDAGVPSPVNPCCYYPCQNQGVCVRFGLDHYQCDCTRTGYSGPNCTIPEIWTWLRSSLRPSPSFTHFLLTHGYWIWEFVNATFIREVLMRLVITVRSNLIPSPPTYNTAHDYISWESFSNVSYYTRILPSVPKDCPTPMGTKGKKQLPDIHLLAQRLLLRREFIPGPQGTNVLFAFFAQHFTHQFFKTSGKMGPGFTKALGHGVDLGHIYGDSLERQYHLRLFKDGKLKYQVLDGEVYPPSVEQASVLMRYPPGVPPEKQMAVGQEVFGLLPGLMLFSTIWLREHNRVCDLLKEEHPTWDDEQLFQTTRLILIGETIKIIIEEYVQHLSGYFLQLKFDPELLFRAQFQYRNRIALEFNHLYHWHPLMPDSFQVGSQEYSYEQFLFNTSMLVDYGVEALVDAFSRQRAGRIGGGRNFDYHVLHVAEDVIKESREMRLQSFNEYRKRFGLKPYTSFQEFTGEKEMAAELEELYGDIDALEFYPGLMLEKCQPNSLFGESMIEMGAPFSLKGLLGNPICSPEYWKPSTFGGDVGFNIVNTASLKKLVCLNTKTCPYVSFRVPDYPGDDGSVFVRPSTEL
Procedure: as §1

[1] = tested on: carrageenan-induced rat foot paw edema; test: Carrageenan-induced rat foot paw edema-2 (CFE-2) assay; format: in vivo; conditions: dosed 1 hour before carrageenan, edema measured 5 hours after, read-out: CFE ID40
Procedure: CARRAGEENAN-INDUCED RAT FOOT PAW EDEMA-2 (CFE-2) ASSAY: PROTOCOL
Carrageenan solution (1% w/v) is prepared by dissolving 100 mg carrageenan (Marine Colloidal Div., Springfield, N.J.) in 10 mL of sterile saline (0.9%) solution (Travenol). The solution is vortexed for 30 to 45 minutes. Animals are dosed with compound 1 hour before carrageenan challenge. Foot paw edema is induced by injecting 0.10 mL of the 1% carrageenan subcutaneously into the plantar portion of the right hind paw of each rat under light anesthesia. Initial foot paw volume is measured immediately following carrageenan challenge using mercury plethysmography (Buxco Electronics). Edema is measured 5 hours after carrageenan. The difference between the 5-hour and the initial paw volume is expressed as delta edema. The delta edema for each test group of animals is used to calculate the percent inhibition of edema achieved by the compound at the test dose compared with the vehicle control group. The ID40 (the dose at which swelling is inhibited by 40%) is calculated by probit analysis for the dose at which 40% inhibition occurs.

[2] = tested on: Mycobacterium-induced rat footpad edema; test: Mycobacterium-induced rat footpad edema assay (MFE); format: in vivo; conditions: dosed 1 hour before Mycobacterium and on Days 1 and 2, swelling at 72 hours, read-out: MFE ID40
Procedure: MYCOBACTERIUM-INDUCED RAT FOOTPAD EDEMA ASSAY (MFE): PROTOCOL
Mycobacterium butyricum (5 mg/mL) is suspended in paraffin oil by sonication for 10 minutes in an ice bath. Footpad edema is induced on Day 0 by injecting 0.1 mL of the Mycobacterium mixture into the left hindpaw of lightly anesthetized rats. Swelling in the injected hindpaw is determined by mercury plethysmography 72 hours after injection. Groups of rats are treated with test compounds (suspended in 0.5% hydroxypropyl methylcellulose with 0.2% Tween-80) or vehicle 1 hour before Mycobacterium injection and on Days 1 and 2. Inhibition of swelling is determined by comparing the change in hindpaw volume in compound- and vehicle-treated rats. An ID40 (the dose at which swelling is inhibited by 40%) is calculated by probit analysis.

gastric ulcers = test: Gastric ulcerogenicity (UD); format: in vivo, Male outbred Wistar rats; conditions: @ 200 mg/kg; oral, fasted rats, 6 hours; class symbol
Procedure: GASTRIC ULCEROGENICITY (UD): PROTOCOL
Male outbred Wistar rats (100 to 250 g) are fasted for 24 hours. After fasting, test compounds are administered orally (in 2 mL/kg of 0.5% hydroxypropyl methylcellulose) and the rats are denied access to food and water for 6 more hours. The rats are then sacrificed with CO2 so that the stomachs can be removed, opened along the greater curvature, and evaluated for the presence of gastric ulcers. Results are expressed as the percent of rats with gastric ulcers at a given dose or as the UD50 (the dose which causes ulcers in 50% of the rats).

IC50 (5-lipoxygenase) [µM]	IC50 (cyclooxygenase) [µM]	SMILES	ED40 [1] [mg/kg]	ED40 [2] [mg/kg]	UD50 (gastric ulcers)
1.2	4.3	CN(O)C(c1ccccc1)c1cc(C(C)(C)C)c(O)c(C(C)(C)C)c1 (centres unmarked) [Example 19, 2,6-Bis(1,1-dimethylethyl)-4-[(hydroxymethylamino)phenylmethyl]phenol, monohydrochloride]	> 30		
2.3	4.1	CC(C)(C)c1cc(C(NO)c2ccccc2)cc(C(C)(C)C)c1O (centres unmarked) [Example 20]	13.2	3.8	N (N = less than 40% inhibition at given concentration)
